Experimental data as given in patent publication US8901160B2, “Heparanase activity inhibitor” (Shiseido Company, Ltd., priority 2009, dated 2014).

Target: T1, heparanase (Homo sapiens, UniProt Q9Y251)
T1 construct: the supernatant was recovered as cell extract; endogenous in cells; host or cells: A431 cells (human epithelial carcinoma), Triton X-100 lysate supernatant
T1 sequence (Q9Y251 158-543 limits assumed): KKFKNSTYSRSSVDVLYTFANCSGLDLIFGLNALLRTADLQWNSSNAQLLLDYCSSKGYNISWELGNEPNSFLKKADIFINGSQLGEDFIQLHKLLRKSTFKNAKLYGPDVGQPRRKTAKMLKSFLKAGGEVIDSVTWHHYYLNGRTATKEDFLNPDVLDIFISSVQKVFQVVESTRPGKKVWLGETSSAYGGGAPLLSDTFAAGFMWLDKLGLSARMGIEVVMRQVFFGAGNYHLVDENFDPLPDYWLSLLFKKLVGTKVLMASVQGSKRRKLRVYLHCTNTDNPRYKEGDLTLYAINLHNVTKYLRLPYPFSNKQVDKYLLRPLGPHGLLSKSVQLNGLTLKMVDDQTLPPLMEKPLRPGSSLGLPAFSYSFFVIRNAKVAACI
T1 sequence (Q9Y251 36-109 limits assumed): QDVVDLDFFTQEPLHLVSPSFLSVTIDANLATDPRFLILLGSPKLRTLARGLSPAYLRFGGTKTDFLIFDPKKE
Test: Evaluation based on heparanase activity inhibition rate (A431 cell extract, biotinylated heparan sulfate-immobilized plate)
Assay type: biochemical
Conditions: 37° C., 2 hours
Description: In the primary evaluation using heparanase activity as the index, as described in detail in the examples which follow, biotinylated heparan sulfate was immobilized in 96 wells, after which heparanase was allowed to act in the presence of a drug, and the amount of reduction in biotinylated heparan sulfate was used to evaluate the heparanase activity by the reaction with peroxidase-labeled avidin and coloration.
A431 cells (human epithelial carcinoma cells) were cultured in 10% serum-containing DMEM (Dulbecco's modified Eagle medium). The cultured cells were solubilized in lysis buffer (50 mM Tris, 0.5% TritonX-100, 0.15 M sodium chloride, pH 4.5) and collected with a scraper, and then pipetted and allowed to stand on ice for 30 minutes. This was followed by centrifugation at 10,000 rpm for 10 minutes to remove the insoluble portion, and the supernatant was recovered as cell extract. The amount of protein in the cell extract was measured with a BCA protein assay kit (BCA Protein Assay Kit, PIERCE, CA46141).
The A431 cell extract was then diluted to 500 μg/mL with assay buffer (50 mM HEPES, 50 mM sodium acetate, 150 mM sodium chloride, 9 mM calcium chloride, 0.1% BSA). […] After further rinsing 3 times with PBS-T, TMB reagent (BIO-RAD, 172-1066) was added at 100 μL/well and reacted therewith, the reaction was terminated with 1N sulfuric acid, and the absorbance at 475 nm (OD475) was measured.
Also, DMSO was added to a serial diluent prepared with the aforementioned A431 cell extract assay buffer (cell extract concentrations: 500 μg/mL, 50 μg/mL, 5 μg/mL, 0.5 μg/mL), to a final concentration of 5% without addition of the test compound, to obtain a mixture (solution for calibration curve). The solution for the calibration curve was subjected to the treatment of the same procedure described above, from seeding of the biotinylated heparan sulfate-immobilized plate, and the OD475 was measured. […]

Row | Heparanase inhibition rate (addition concentration 0.05%) [%] | Heparanase inhibition rate (addition concentration 0.5%) [%] | SMILES
1 | 99.40 | – | O=C1NCCN1CCO [1-(2-Hydroxyethyl)-2-imidazolidinone, 1-(2-hydroxyethyl)-2-imidazolidinone]
2 | 99.00 | – | O=C1CCCN1CCO [1-(2-Hydroxyethyl)-2-pyrrolidone, 1-(2-hydroxyethyl)-2-pyrrolidone]
3 | – | 99.95 | O=C1NCCN1 [2-Imidazolidinone, 2-imidazolidinone]
